Experimental data from patent US6992079B2, “Substituted 11-phenyl-dibenzazepine compounds useful for the treatment or prevention of diseases characterized by abnormal cell proliferation” (President Fellows of Harvard College, priority 1997, dated 2006).
Read-outs that look alike come from different tables or passages of the source.

Experiments:
Assay type in all cases: cell-based
[1] = In-Vitro Testing SRB panel: Renal Cancer
[2] = tested on: SN12C; experiment: In-Vitro Testing SRB panel: Renal Cancer
[3] = tested on: T-47D; experiment: In-Vitro Testing SRB panel: Breast Cancer
[4] = tested on: RPMI-8226; experiment: In-Vitro Testing SRB panel: Leukemia; conditions: RPMI-8226
[5] = tested on: OVCAR-5; experiment: In-Vitro Testing SRB panel: Ovarian Cancer; conditions: OVCAR-5
[6] = tested on: ROP-62
[7] = tested on: SF-268; experiment: In-Vitro Testing SRB panel: CNS Cancer; conditions: SF-268
[8] = tested on: NCI-H23; conditions: NCI-H23
[9] = tested on: HT29; experiment: In-Vitro Testing SRB panel: Colon Cancer
[10] = tested on: SW-620; experiment: In-Vitro Testing SRB panel: Colon Cancer; conditions: SW-620
[11] = tested on: PC-3; experiment: In-Vitro Testing SRB panel: Prostate Cancer; conditions: PC-3
[12] = tested on: SK-MEL-2B; experiment: In-Vitro Testing SRB panel: Melanoma
[13] = tested on: MDA-N; experiment: In-Vitro Testing SRB panel: Breast Cancer
[14] = tested on: SK-OV-3; experiment: In-Vitro Testing SRB panel: Ovarian Cancer; conditions: SK-OV-3
[15] = tested on: SNB-19; experiment: In-Vitro Testing SRB panel: CNS Cancer; conditions: SNB-19
[16] = tested on: OVCAR-8; experiment: In-Vitro Testing SRB panel: Ovarian Cancer; conditions: OVCAR-8
[17] = tested on: panel of human cancer cells; experiment: In vitro screening, SRB, panel of 60 human cancer cell lines
[18] = tested on: NCI-H226; conditions: NCI-H226
[19] = Homo sapiens, read-out: LC50 (the source's name)

COc1cccc2c1C(c1ccccc1Cl)c1cc(Cl)ccc1N(C(=O)c1ccc([N+](=O)[O-])cc1)C2 (centres unmarked) [Compound 31]
TGI ([1]; DO-31): >1.00E−04 Molar
Percent Growth ([1]; DO-31, log10 conc -4 Molar): 1%
Percent Growth ([1]; DO-31, log10 conc -5 Molar): 19%
Percent Growth ([1]; DO-31, log10 conc -6 Molar): 61%
Percent Growth ([1]; DO-31, log10 conc -7 Molar): 104%
Percent Growth ([1]; DO-31, log10 conc -8 Molar): 94%
GI50 ([1]; Homo sapiens): 1.82 µM
CC50 ([1]; Homo sapiens, DO-31, read-out: LC50 (the source's name)): > 100 µM
TGI [2]: >1.00E−04 Molar
GI50 ([2]; Homo sapiens): 6.93 µM
CC50 [2, 19]: > 100 µM
Percent Growth ([2]; log10 conc -4 Molar): 30%
Percent Growth ([2]; log10 conc -5 Molar): 43%
Percent Growth ([2]; log10 conc -6 Molar): 85%
Percent Growth ([2]; log10 conc -7 Molar): 101%
Percent Growth ([2]; log10 conc -8 Molar): 94%
GI50 ([3]; Homo sapiens, T47D): 2.97 µM
CC50 ([3]; Homo sapiens, T47D, T-47D, read-out: LC50 (the source's name)): > 100 µM
TGI ([3]; T-47D): >1.00E−04 Molar
Percent Growth ([3]; T-47D, log10 conc -4 Molar): 27%
Percent Growth ([3]; T-47D, log10 conc -5 Molar): 34%
Percent Growth ([3]; T-47D, log10 conc -6 Molar): 65%
Percent Growth ([3]; T-47D, log10 conc -7 Molar): 90%
Percent Growth ([3]; T-47D, log10 conc -8 Molar): 92%
GI50 ([4]; Homo sapiens): 0.327 µM
CC50 [4, 19]: > 100 µM
TGI [4]: >1.00E−04 Molar
Percent Growth ([4]; log10 conc -4 Molar): 21%
Percent Growth ([4]; log10 conc -5 Molar): 23%
Percent Growth ([4]; log10 conc -6 Molar): 36%
Percent Growth ([4]; log10 conc -7 Molar): 65%
Percent Growth ([4]; log10 conc -8 Molar): 82%
GI50 ([5]; Homo sapiens): 91.7 µM
CC50 [5, 19]: > 100 µM
TGI [5]: >1.00E−04 Molar
Percent Growth ([5]; log10 conc -4 Molar): 49%
Percent Growth ([5]; log10 conc -5 Molar): 70%
Percent Growth ([5]; log10 conc -6 Molar): 82%
Percent Growth ([5]; log10 conc -7 Molar): 102%
Percent Growth ([5]; log10 conc -8 Molar): 101%
GI50 ([6]; Homo sapiens): > 100 µM
CC50 ([6]; Homo sapiens, ROP-62, read-out: LC50 (the source's name)): > 100 µM
TGI ([6]; ROP-62): >1.00E−04 Molar
Percent Growth ([6]; ROP-62, log10 conc -4 Molar): 50%
Percent Growth ([6]; ROP-62, log10 conc -5 Molar): 79%
Percent Growth ([6]; ROP-62, log10 conc -6 Molar): 88%
Percent Growth ([6]; ROP-62, log10 conc -7 Molar): 105%
Percent Growth ([6]; ROP-62, log10 conc -8 Molar): 100%
GI50 ([7]; Homo sapiens): 5.28 µM
CC50 [7, 19]: > 100 µM
TGI [7]: >1.00E−04 Molar
Percent Growth ([7]; log10 conc -4 Molar): 46%
Percent Growth ([7]; log10 conc -5 Molar): 47%
Percent Growth ([7]; log10 conc -6 Molar): 59%
Percent Growth ([7]; log10 conc -7 Molar): 105%
Percent Growth ([7]; log10 conc -8 Molar): 94%
GI50 ([8]; Homo sapiens): 2.65 µM
CC50 [8, 19]: > 100 µM
TGI [8]: >1.00E−04 Molar
Percent Growth ([8]; log10 conc -4 Molar): 19%
Percent Growth ([8]; log10 conc -5 Molar): 33%
Percent Growth ([8]; log10 conc -6 Molar): 62%
Percent Growth ([8]; log10 conc -7 Molar): 92%
Percent Growth ([8]; log10 conc -8 Molar): 96%
TGI ([9]; HI29): >1.00E−04 Molar
Percent Growth ([9]; HI29, log10 conc -4 Molar): 16%
Percent Growth ([9]; HI29, log10 conc -5 Molar): 26%
Percent Growth ([9]; HI29, log10 conc -6 Molar): 47%
Percent Growth ([9]; HI29, log10 conc -7 Molar): 91%
Percent Growth ([9]; HI29, log10 conc -8 Molar): 97%
GI50 ([9]; Homo sapiens, HT-29): 0.866 µM
CC50 ([9]; Homo sapiens, HT-29, HI29, read-out: LC50 (the source's name)): > 100 µM
GI50 ([10]; Homo sapiens): 2 µM
CC50 [10, 19]: > 100 µM
TGI [10]: >1.00E−04 Molar
Percent Growth ([10]; log10 conc -4 Molar): 27%
Percent Growth ([10]; log10 conc -5 Molar): 34%
Percent Growth ([10]; log10 conc -6 Molar): 57%
Percent Growth ([10]; log10 conc -7 Molar): 94%
Percent Growth ([10]; log10 conc -8 Molar): 105%
GI50 ([11]; Homo sapiens): 0.334 µM
CC50 [11, 19]: > 100 µM
TGI [11]: 7.30E−06 Molar
Percent Growth ([11]; log10 conc -4 Molar): −26%
Percent Growth ([11]; log10 conc -5 Molar): −6%
Percent Growth ([11]; log10 conc -6 Molar): 35%
Percent Growth ([11]; log10 conc -7 Molar): 66%
Percent Growth ([11]; log10 conc -8 Molar): 91%
GI50 ([12]; Homo sapiens): 7.47 µM
CC50 ([12]; Homo sapiens, SK-MEL-2B, read-out: LC50 (the source's name)): > 100 µM
TGI ([12]; SK-MEL-2B): >1.00E−04 Molar
Percent Growth ([12]; SK-MEL-2B, log10 conc -4 Molar): 31%
Percent Growth ([12]; SK-MEL-2B, log10 conc -5 Molar): 48%
Percent Growth ([12]; SK-MEL-2B, log10 conc -6 Molar): 62%
Percent Growth ([12]; SK-MEL-2B, log10 conc -7 Molar): 87%
Percent Growth ([12]; SK-MEL-2B, log10 conc -8 Molar): 92%
TGI [13]: >1.00E−04 Molar
GI50 ([13]; Homo sapiens): 1.97 µM
CC50 [13, 19]: > 100 µM
Percent Growth ([13]; log10 conc -4 Molar): 22%
Percent Growth ([13]; log10 conc -5 Molar): 33%
Percent Growth ([13]; log10 conc -6 Molar): 57%
Percent Growth ([13]; log10 conc -7 Molar): 90%
Percent Growth ([13]; log10 conc -8 Molar): 96%
GI50 ([14]; Homo sapiens): > 100 µM
CC50 [14, 19]: > 100 µM
TGI [14]: >1.00E−04 Molar
Percent Growth ([14]; log10 conc -4 Molar): 63%
Percent Growth ([14]; log10 conc -5 Molar): 85%
Percent Growth ([14]; log10 conc -6 Molar): 88%
Percent Growth ([14]; log10 conc -7 Molar): 102%
Percent Growth ([14]; log10 conc -8 Molar): 97%
GI50 ([15]; Homo sapiens): 2.61 µM
CC50 [15, 19]: > 100 µM
TGI [15]: 5.66E−05 Molar
Percent Growth ([15]; log10 conc -4 Molar): −5%
Percent Growth ([15]; log10 conc -5 Molar): 16%
Percent Growth ([15]; log10 conc -6 Molar): 74%
Percent Growth ([15]; log10 conc -7 Molar): 99%
Percent Growth ([15]; log10 conc -8 Molar): 102%
GI50 ([16]; Homo sapiens): 5.3 µM
CC50 [16, 19]: > 100 µM
TGI [16]: >1.00E−04 Molar
Percent Growth ([16]; log10 conc -4 Molar): 29%
Percent Growth ([16]; log10 conc -5 Molar): 38%
Percent Growth ([16]; log10 conc -6 Molar): 82%
Percent Growth ([16]; log10 conc -7 Molar): 94%
Percent Growth ([16]; log10 conc -8 Molar): 99%
activity against the human cell panel [17]: exhibited activity against the human cell panel
GI50 ([18]; Homo sapiens): 3.67 µM
CC50 [18, 19]: > 100 µM
TGI [18]: >1.00E−04 Molar
Percent Growth ([18]; log10 conc -4 Molar): 13%
Percent Growth ([18]; log10 conc -5 Molar): 34%
Percent Growth ([18]; log10 conc -6 Molar): 71%
Percent Growth ([18]; log10 conc -7 Molar): 90%
Percent Growth ([18]; log10 conc -8 Molar): 90%
